Measurements as given in ChEMBL document CHEMBL1201862, “PubChem BioAssay data set” (2004).
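Assay format: 96-well plates, 48-hour exposure. At the GI50, growth is halved.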 The source made the active and inactive calls. Cut-off read from the data, not from the text of the source: active = GI50 up to about 1.1 µM and inactive = higher.

What was measured:
Test in all cases: NCI-60 cell line screen, 48 h
[1] = system: RPMI-8226
[2] = system: SN12C
[3] = system: HCC 2998
[4] = system: SNB-75
[5] = system: A498
[6] = system: SK-OV-3
[7] = system: HOP-62
[8] = system: EKVX
[9] = system: Malme-3M
[10] = system: HT-29
[11] = system: CAKI-1
[12] = system: LOX IMVI
[13] = system: CCRF-CEM
[14] = system: IGROV-1

Measured: GI50

Cn1c(=O)c(NC(=O)C(Cl)(Cl)Cl)nc2ccccc21
inactive: [1] > 100 µM | [2] > 100 µM | [3] > 100 µM | [4] 62.5 µM | [5] > 100 µM | [6] > 100 µM | [7] > 100 µM | [8] 54.5 µM | [9] > 100 µM | [10] > 100 µM | [11] > 100 µM | [12] > 100 µM | [13] > 100 µM | [14] > 100 µM

CC(=O)OCC1OC(N2C(=O)/C(=N\NC(N)=S)c3ccc([N+](=O)[O-])cc32)C(OC(C)=O)C1OC(C)=O (stereo not given)
inactive: [1] 27.9 µM | [2] 36.1 µM | [3] 26.4 µM | [4] 18.6 µM | [6] > 100 µM | [7] 31.3 µM | [8] 36.6 µM | [9] 33.7 µM | [10] 30 µM | [11] 38.4 µM | [12] 19.1 µM | [13] 12.9 µM | [14] 48.8 µM

O=C(Nc1c(-c2nc3ccccc3[nH]2)sc(=S)n1-c1ccccc1)c1ccccc1
inactive: [1] > 100 µM | [2] 74 µM | [3] > 100 µM | [4] 29.4 µM | [5] > 100 µM | [6] > 100 µM | [7] 56.1 µM | [8] > 100 µM | [9] > 100 µM | [10] > 100 µM | [11] > 100 µM | [12] 97.1 µM | [13] > 100 µM | [14] > 100 µM

CCOC(=O)CCc1c(C)c2c(OC(C)=O)cc(OC(C)=O)cc2oc1=O
inactive: [2] 28.4 µM | [3] 82.8 µM | [4] 21.7 µM | [7] > 100 µM | [8] 58.3 µM | [9] 20.7 µM | [10] 35.6 µM | [11] > 100 µM | [12] > 10 µM

CC(C)C1COC(C(C)(C)C2=N[C@@H](C(C)C)CO2)=N1 (stereo not given in full)
inactive: [1] > 100 µM | [2] > 100 µM | [3] > 100 µM | [4] > 100 µM | [6] > 100 µM | [7] > 100 µM | [8] > 100 µM | [9] > 100 µM | [10] > 100 µM | [12] > 100 µM | [13] > 100 µM | [14] > 100 µM

CC1(CO)C(=O)OC12CCCCC2 (stereo not given)
inactive: [1] > 100 µM | [2] > 100 µM | [3] > 100 µM | [4] 84.5 µM | [5] 44.4 µM | [6] > 100 µM | [7] > 100 µM | [8] > 100 µM | [9] > 100 µM | [10] > 100 µM | [11] > 100 µM | [12] > 100 µM | [13] > 100 µM | [14] > 100 µM

NC(=O)NC(=O)C1CCC(=O)N1S(=O)(=O)c1ccc(Cl)cc1 (stereo not given)
inactive: [1] > 100 µM | [2] > 100 µM | [4] > 100 µM | [6] > 100 µM | [7] > 100 µM | [8] > 100 µM | [9] > 100 µM | [10] > 100 µM | [11] > 100 µM | [13] 77.4 µM | [14] > 100 µM

CN(C)CCNC(=O)c1cccc2ccc(-c3cccnc3)nc12
inactive: [2] 3.61 µM | [3] 5.31 µM | [4] 10.6 µM | [5] 1.9 µM | [6] 10.1 µM | [7] 5.57 µM | [8] 4.47 µM | [9] 5.41 µM | [10] 4.78 µM | [11] 3.88 µM | [12] 3.8 µM | [13] 6.4 µM | [14] 3.24 µM

CC1=C(C(=O)Nc2cc(F)c(F)cc2F)C(c2ccc(N(C)C)cc2)C(C(=O)Nc2cc(F)c(F)cc2F)=C(C)N1
inactive: [1] 17.2 µM | [2] 30.1 µM | [3] 23.7 µM | [4] 21.5 µM | [5] 19.1 µM | [6] 30.1 µM | [7] 21.1 µM | [8] 16 µM | [9] 32.7 µM | [10] 30.3 µM | [11] 13.8 µM | [12] 31.8 µM | [13] 18.5 µM | [14] 35.5 µM

COc1ccc(C(=O)Nc2ccn(CCOC(=O)c3ccc(OC)cc3)c(=O)n2)cc1
inactive: [1] > 100 µM | [2] > 100 µM | [4] > 100 µM | [5] 93.3 µM | [6] > 100 µM | [7] 51.1 µM | [8] > 100 µM | [9] > 100 µM | [10] > 100 µM | [11] > 100 µM | [12] > 100 µM | [13] > 100 µM | [14] > 100 µM

C/N=C1\S/C(=N\c2ccc(N(C)C)cc2)N1C
inactive: [1] 34.5 µM | [2] 31 µM | [3] 33.2 µM | [4] 19 µM | [5] 23 µM | [6] 26.8 µM | [7] > 100 µM | [8] 25 µM | [9] 39.9 µM | [10] 28.2 µM | [12] 46 µM | [13] 36.1 µM | [14] 51.8 µM

C=CCN1C(=O)CS/C1=N\NC(=O)c1c(C)nc2sccn12
inactive: [1] > 100 µM | [2] > 100 µM | [3] > 100 µM | [6] > 100 µM | [7] > 100 µM | [8] > 100 µM | [9] > 100 µM | [10] > 100 µM | [11] > 100 µM | [12] > 100 µM | [13] > 100 µM | [14] > 100 µM

Cc1ccc([N+](=O)[O-])cc1NC(=O)c1cccc([N+](=O)[O-])c1O
inactive: [1] 4.73 µM | [2] 23.8 µM | [4] 13.4 µM | [5] 11.3 µM | [6] 17.1 µM | [7] 7.96 µM | [8] 21.2 µM | [9] 5.09 µM | [10] 20.1 µM | [11] 17.8 µM | [12] 26.6 µM | [13] 18.2 µM | [14] 11.7 µM

CCNC(=O)/C=C/CCC#Cc1ccc(-c2ccc(-c3cccs3)s2)s1
inactive: [1] > 100 µM | [3] > 100 µM | [4] > 100 µM | [6] > 100 µM | [7] > 100 µM | [8] > 100 µM | [9] 3.52 µM | [10] > 100 µM | [11] > 100 µM | [12] > 100 µM | [13] > 100 µM | [14] > 100 µM

CSc1n/c(=N\c2ccccc2)sn1-c1ccccc1
inactive: [1] 5.45 µM | [2] 15.6 µM | [3] 17.9 µM | [4] 27.2 µM | [5] 18.7 µM | [6] 36.6 µM | [7] 15.6 µM | [8] 27.5 µM | [9] 24.3 µM | [10] 3.52 µM | [11] 13.5 µM | [12] 16.6 µM | [13] 11.2 µM | [14] 4.65 µM

CC1CCc2c(sc3ncnc(N/N=C/c4ccc(Cl)cc4)c23)C1 (stereo not given)
inactive: [1] 29.9 µM | [2] 33.4 µM | [3] 48.1 µM | [4] 78.9 µM | [6] 35.6 µM | [7] 41.9 µM | [8] 20.1 µM | [9] > 100 µM | [10] 38.5 µM | [11] 40.8 µM | [12] 22.1 µM | [13] > 10 µM | [14] 53.1 µM

CCOC(=O)/C(O)=C/c1cc(OC)cc(=O)o1
inactive: [1] > 100 µM | [2] > 100 µM | [3] > 100 µM | [4] > 100 µM | [5] > 100 µM | [6] > 100 µM | [8] > 100 µM | [9] > 100 µM | [10] > 100 µM | [11] > 100 µM | [12] > 100 µM | [13] > 100 µM | [14] > 100 µM

O=C(O)C1CCCCN1C(=O)c1ccccc1 (stereo not given)
inactive: [1] > 100 µM | [2] > 100 µM | [3] > 100 µM | [4] > 100 µM | [5] > 100 µM | [6] > 100 µM | [7] > 100 µM | [8] > 100 µM | [9] > 100 µM | [10] > 100 µM | [12] > 100 µM | [13] > 100 µM | [14] > 100 µM

O=C(O)CCSC(=S)Nc1cccc(F)c1
inactive: [1] 31.6 µM | [2] 60.8 µM | [3] > 100 µM | [4] 82 µM | [5] 30.4 µM | [6] > 100 µM | [7] 56.4 µM | [8] 18.6 µM | [9] 48.6 µM | [10] 80 µM | [11] 77.3 µM | [12] 13.9 µM | [14] 29.2 µM

CC(=O)O[C@]12CCCCCCC1C1(O)C(O)CCC[C@H]12 (stereo not given in full)
inactive: [1] > 100 µM | [2] > 100 µM | [4] > 100 µM | [6] > 100 µM | [7] > 100 µM | [8] > 100 µM | [9] > 100 µM | [10] > 100 µM | [12] > 100 µM | [13] > 100 µM

O=C1N2Cc3c4ccc5c3CN3C(=O)N6Cc7c(ccc(c7CN1C6(c1ccccc1)C23c1ccccc1)OCCOCCOc1cc(Br)c(Br)cc1OCCOCCO4)OCCOCCOc1cc(Br)c(Br)cc1OCCOCCO5 (stereo not given)
inactive: [1] > 100 µM | [2] 39.3 µM | [3] > 100 µM | [4] 38.2 µM | [6] > 100 µM | [7] 40.8 µM | [8] > 100 µM | [9] 75.5 µM | [10] > 100 µM | [11] > 100 µM | [13] > 100 µM | [14] 44 µM
